According to patent US8642630B2, “Endogeneous repair factor production accelerators” (Ono Pharmaceutical Co., Ltd., priority 2002, dated 2014):

How the values were obtained:
[1] = tested on: mouse sponge transplantation model; assay: Angiogenesis test using mouse sponge transplantation model, Example 8; assay type: in vivo; conditions: 14 days of repeated administration
Procedure: Under anesthesia, dorsal part of a mouse was incised and a discus urethane sponge (about 5 mm in thickness and 13 mm in diameter) was embedded therein. Administration of the agent was carried out by topically administering it directly into the sponge once a day for a total of 14 times starting on the day of the sponge transplantation model preparation, or on the operation-completed day and 7th day thereafter. On the 15th day after the sponge transplantation, the sponge containing granulation tissue was extracted and observed with the naked eye, and then its wet mass was measured. In addition, this was mixed with distilled water of 4 times larger amount than the wet mass, homogenized and centrifuged, and then the supernatant was subjected to the measurement of the hemoglobin content using Hemoglobin 13-Test Wako (manufactured by Wako Pure Chemical Industries).
• The polylactic acid-glycolic acid copolymer used in Preparation Example 2 was suspended in 0.2 w/v % Tween 80 solution (0.05 ml). In this connection, amount of the polylactic acid-glycolic acid copolymer is identical to the amount contained in Compound 1 MS (200 μg). Compound 1 (20 μg) Group: • Compound 1 (20 μg) was suspended in 0.2 w/v % Tween 80 solution (0.05 ml). Compound 1 (40 μg) Group:
Compound 1 (40 μg) was suspended in 0.2 w/v % Tween 80 solution (0.05 ml).
• Compound 1 (200 μg) was suspended in 0.2 w/v % Tween 80 solution (0.05 ml). Compound 1 MS (200 μg) group: • The microsphere preparation produced in Preparation Example 2 containing […] of Compound 1 was suspended in 0.2 w/v % Tween 80 solution (0.05 ml). Compound 1 MS (400 μg) Group: • The microsphere preparation produced in Preparation Example 2 containing 400 μg of Compound 1 was suspended in 0.2 w/v % Tween 80 solution (0.05 ml). Compound 3 (20 μg) Group: • Compound 3 (20 μg) was suspended in 0.2 w/v % Tween 80 solution (0.05 ml).

[2] = tested on: normal human umbilical cord vein vascular endothelial cells and normal human skin fibroblasts; assay: Measurement of angiogenesis acceleration action (in vitro), hollow organ formation, Example 9; assay type: cell-based; conditions: 10 days of culturing, FIG. 5
Procedure: An angiogenesis kit (manufactured by Kurabo; constituted from normal human umbilical cord vein vascular endothelial cells and normal human skin fibroblasts) was cultured for 3 hours, and then the culture medium (the medium for angiogenesis use attached to the angiogenesis kit was used as the culture medium and cultured at 37° C. under a moist environment of 5% carbon dioxide-95% air, and a carbon dioxide incubator BNA-121D was used as the incubator) was changed and an agent to be tested was added to each well (0.5 ml/well). The medium exchange was carried out also on the 3rd, 6th and 8th days after commencement of the culturing and the fresh agent to be tested was added. The kind and concentration of the agent to be tested were untreated; DMSO: 0.1%; α-CD: 0.0118, 0.118 and 1.18 mg/ml; PGE2-αCD: 1, 10 and 100 nmol/l; Compound 3 (EP2 agonist), Compound 4 (EP4 agonist), EP1 agonist and EP3 agonist: 1, 10 and 100 nmol/l, VEGF: 0.1, 1 and 10 ng/ml; and HGF: 0.1, 1 and 10 ng/ml, and culturing was carried out by using 3 wells for each concentration. Fixation was carried out 10 days after the commencement of culturing, and staining of hollow organ with anti-CD31 antibody was carried out by using a hollow organ staining kit (manufactured by Kurabo). As the evaluation, Chalkley Grid (a grid lens, Kurabo) was mounted on the eyepiece of a microscope, and the hollow organ formation was evaluated by counting intersections of the randomly arrange points of Chalkley Grid with the formed hollow organ (by referring to the evaluation method of J. Pathol., 177, 275-283 (1995)). The counting was carried out at 12 positions per well, and the total was calculated.
In this connection, Compound 3 as an EP2 agonist ((5Z,9β,11α,13E)-17,17-propano-11,16-dihydroxy-9-chloro-20-norprost-5,13-dienoic acid) was dissolved in dimethyl sulfoxide (DMSO) to prepare 10^−4, 10^−5 and 10^−6 mol/l solutions which were then used by diluting 1/1000 time with the culture medium.
Compound 4 as an EP4 agonist ((11α,13E,15α)-9-oxo-11,15-dihydroxy-16-(3-methoxymethylphenyl)-17,18,19,20-tetranor-5-thiaprost-13-enoic acid) was dissolved in dimethyl sulfoxide (DMSO) to prepare 10^−4, 10^−5 and 10^−6 mol/l solutions which were then used by diluting 1/1000 time with the culture medium.
The EP1 agonist ((13E)-(11α,15S,17S)-2,5-ethano-6,9-dioxo-11,15-dihydroxy-17,20-dimethylprost-13-enoic acid; the compound described in Example 1 in the specification of JP-A-11-322709) was dissolved in dimethyl sulfoxide (DMSO) to prepare 10^−4, 10^−5 and 10^−6 mol/l solutions which were then used by diluting 1/1000 time with the culture medium.
The EP3 agonist (11α,15α-dimethoxy-9-oxoprost-5Z,13E-dienoic acid; the compound described in Example 1 in the specification of WO98/34916) was dissolved in dimethyl sulfoxide (DMSO) to prepare 10^−4, 10^−5 and 10^−6 mol/l solutions which were then used by diluting 1/1000 time with the culture medium.
The PGE2-αCD was dissolved in distilled water for injection to prepare 10^−4, 10^−5 and 10^−6 mol/l solutions which were then used by diluting 1/1000 time with the culture medium.
As the VEGF (vascular endothelial growth factor), the 2 μg/ml solution of VEGF contained in the angiogenesis control reagent kit of Kurabo was diluted with the culture medium and used.
As the HGF (human hepatocyte growth factor), the 5 μg/ml solution of HGF purchased from R & D System-Funakoshi was diluted with the culture medium and used.
The counts of hollow organ formation in the untreated wells were compared with those of the wells treated with respective concentrations of test samples by Dunnett's test (two-sided test). The significance level was set to 5%.
(§1) In this connection, the data were shown by average value of 3 wells and standard deviation.

[3] = tested on: HGF; assay: Endogenous repair factor releasing action (in vitro), HGF by ELISA, Example 10; assay type: cell-based, human; conditions: 100 nmol/l; for HGF concentration in culture supernatant: after 72 hours of culturing, average of 3 wells ± SD; for HGF concentration in supernatants, in words: vs untreated, Dunnett's test
Procedure: (§2) An angiogenesis kit (manufactured by Kurabo; constituted from normal human umbilical cord vein vascular endothelial cells and normal human skin fibroblasts) was cultured for 3 hours, and then the culture medium (the medium for angiogenesis use attached to the angiogenesis kit was used as the culture medium and cultured at 37° C. under a moist environment of 5% carbon dioxide-95% air, and a carbon dioxide incubator BNA-121D was used as the incubator) was changed and an agent to be tested was added to each well (0.5 ml/well). HGF and VEGF concentrations in the culture supernatants were measured 3 days after the commencement of the culturing. Kinds and concentrations of the agent to be tested were untreated; DMSO: 0.1%; PGE1-αCD: 100 nmol/l; PGE2-αCD: 100 nmol/l; and Compound 3 (EP2 agonist) and Compound 4 (EP4 agonist): 100 nmol/l, and the culturing was carried out by using 3 wells for each concentration. The HGF and VEGF concentrations were measured by using an ELISA kit (R % D system-Funakoshi).
(§3) In this connection, Compound 3 as an EP2 agonist ((5Z,9β,11α,13E)-17,17-propano-11,16-dihydroxy-9-chloro-20-norprost-5,13-dienoic acid) was dissolved in dimethyl sulfoxide (DMSO) to prepare a 10^−4 mol/l solution which was then used by diluting 1/1000 time with the culture medium.
(§4) Compound 4 as an EP4 agonist ((11α,13E,15α)-9-oxo-11,15-dihydroxy-16-(3-methoxymethylphenyl)-17,18,19,20-tetranor-5-thiaprost-13-enoic acid) was dissolved in dimethyl sulfoxide (DMSO) to prepare a […] solution which was then used by diluting 1/1000 time with the culture medium.
(§5) The PGE1-αCD and PGE2-αCD were dissolved in distilled water for injection to prepare 10^−4 mol/l solutions which were then used by diluting 1/1000 time with the culture medium.
(§6) HGF and VEGF concentrations in the supernatants of the solvent control group were compared with those of the agent-treated groups by Dunnett's test (two-sided test). The significance level was set to 5%.
as §1

[4] = tested on: VEGF; assay: Endogenous repair factor releasing action (in vitro), VEGF by ELISA, Example 10; assay type: cell-based, human; conditions: 100 nmol/l; for VEGF concentration in culture supernatant: after 72 hours of culturing, average of 3 wells ± SD; for VEGF concentration in supernatants, in words: vs untreated, Dunnett's test
Procedure: as §2, §3, §4, §5, §6, §1

[5] = tested on: normal human umbilical cord vein vascular endothelial cells and normal human skin fibroblasts; assay: Measurement of angiogenesis acceleration action (in vitro), hollow organ formation, Example 1; assay type: cell-based; conditions: 10 ng/ml; 10 days of culturing; FIG. 1
Procedure: An angiogenesis kit (manufactured by Kurabo; constituted from normal human umbilical cord vein vascular endothelial cells and normal human skin fibroblasts) was cultured for 3 hours, and then the culture medium (the medium for angiogenesis use attached to the angiogenesis kit was used as the culture medium and cultured at 37° C. under a moist environment of 5% carbon dioxide-95% air, and a carbon dioxide incubator BNA-121D was used as the incubator) was changed and an agent to be tested was added to each well (0.5 ml/well). The medium exchange was carried out also on the 3rd, 6th and 8th days after commencement of the culturing and the fresh agent to be tested was added. The kind and concentration of the agent to be tested were untreated, solvent (DMSO) 0.1%, Compound 1 10^−9, 10^−8 and 10^−7 mol/l, VEGF-A 0.1, 1 and 10 ng/ml and HGF 0.1, 1 and 10 ng/ml, and the culturing was carried out by using 3 wells for each concentration. Fixation was carried out 10 days after the commencement of culturing, and staining of hollow organ with anti-CD31 antibody was carried out by using a hollow organ staining kit (manufactured by Kurabo). As the evaluation, Chalkley Grid (a grid lens, manufactured by Kurabo) was mounted on the eyepiece of a microscope, and the hollow organ formation was evaluated by counting intersections of the randomly arrange points of Chalkley Grid with the formed hollow organ (by referring to the evaluation method of J. Pathol., 177, 275-283 (1995)). The counting was carried out at 12 positions per well, and the total was calculated.
As the agent to be tested, Compound 1 ((E)-[5-[2-[1-phenyl-1-(3-pyridyl)methylideneaminoxy]ethyl]-7,8-dihydronaphthalen-1-yloxy]acetic acid) was dissolved in dimethyl sulfoxide (DMSO) to prepare 10^−4, 10^−5 and 10^−6 mol/l solutions which were then used by diluting 1/1000 time with the culture medium.
As the VEGF-A (vascular endothelial growth factor-A), the 2 μg/ml solution of VEGF contained in the angiogenesis control reagent kit of Kurabo was diluted with the culture medium and used. […]

[6] = 20 μg into the sponge once a day, 15th day
[7] = 10 nmol/l and 100 nmol/l, vs untreated wells, Dunnett's test

Molecule	hollow organ formation (Chalkley Grid count), in words [2, 7]	HGF concentration in culture supernatant [3] [pg/mL]	HGF concentration in supernatants, in words [3]	VEGF concentration in culture supernatant [4] [pg/mL]	VEGF concentration in supernatants, in words [4]	hollow organ formation (Chalkley Grid count), in words ([2]; 1, 10 and 100 nmol/l)	other results
CCC1(C(O)C/C=C/[C@@H]2[C@@H](C/C=C\CCCC(=O)O)[C@H](Cl)C[C@H]2O)CCC1 (stereo partly drawn) [Compound 3, (5Z,9β,11α,13E)-17,17-propano-11,16-dihydroxy-9-chloro-20-norprost-5,13-dienoic acid]	significantly accelerated hollow organ formation	1865 ± 48	significantly increased HGF and VEGF concentrations	2762 ± 51	significantly increased HGF and VEGF concentrations	–	Hemoglobin content [1, 6]: 4.588 ± 0.488 mg/g wet tissue; Sponge wet weight [1, 6]: 0.5193 ± 0.0792 g; formation of granulation in the sponge, in words ([1]; 20 μg): formation of granulation was found; hemoglobin concentration in the granulation tissue, in words ([1]; 20 μg, vs polymer group): significant increase in the concentration of hemoglobin
COCc1cccc(C[C@H](O)/C=C/[C@H]2[C@H](O)CC(=O)[C@@H]2CCSCCCC(=O)O)c1 [Compound 4, (11α,13E,15α)-9-oxo-11,15-dihydroxy-16-(3-methoxymethylphenyl)-17,18,19,20-tetranor-5-thiaprost-13-enoic acid]	significantly accelerated hollow organ formation	379 ± 12	significantly increased HGF and VEGF concentrations	2936 ± 69	significantly increased HGF and VEGF concentrations	–	–
CCCC[C@H](C)C[C@H](O)/C=C/[C@H]1[C@H](O)CC(=O)[C@@H]1CC(=O)C1CCC(C(=O)O)CC1 (stereo partly drawn) [EP1 agonist, (13E)-(11α,15S,17S)-2,5-ethano-6,9-dioxo-11,15-dihydroxy-17,20-dimethylprost-13-enoic acid, reference compound]	–	–	–	–	–	did not exert influence upon hollow organ formation	–
CCCCC[C@@H](/C=C/[C@H]1[C@H](OC)CC(=O)[C@@H]1C/C=C\CCCC(=O)O)OC [EP3 agonist, 11α,15α-dimethoxy-9-oxoprost-5Z,13E-dienoic acid, reference compound]	–	–	–	–	–	did not exert influence upon hollow organ formation	–
OC[C@H]1O[C@@H]2O[C@H]3[C@H](O)[C@@H](O)[C@@H](O[C@H]4[C@H](O)[C@@H](O)[C@@H](O[C@H]5[C@H](O)[C@@H](O)[C@@H](O[C@H]6[C@H](O)[C@@H](O)[C@@H](O[C@H]7[C@H](O)[C@@H](O)[C@@H](O[C@H]1[C@H](O)[C@H]2O)O[C@@H]7CO)O[C@@H]6CO)O[C@@H]5CO)O[C@@H]4CO)O[C@@H]3CO [α-CD]	–	–	–	–	–	–	hollow organ formation (Chalkley Grid count), in words ([2]; 0.0118, 0.118 and 1.18 mg/ml): did not exert influence upon hollow organ formation
HGF: human hepatocyte growth factor purchased from R & D System-Funakoshi; positive control agent	–	–	–	–	–	–	hollow organ formation (Chalkley Grid count), in words [5]: accelerated hollow organ formation; hollow organ formation (Chalkley Grid count), in words ([2]; 10 ng/ml): accelerated hollow organ formation
